{
  "source": "paper PMC6615261",
  "about": "“Repurposing Azithromycin and Rifampicin Against Gram-Negative Pathogens by Combination With Peptidomimetics” (Frontiers in Cellular and Infection Microbiology, 2019)",
  "key": {"[1]": {"tested_on": "E. coli ST131", "experimental": "(§1) The potential synergistic effects in peptidomimetic-antibiotic combinations were assessed by using a two-dimensional checkerboard assay (Garcia, [2010]). Briefly, twofold dilutions of peptide and antibiotic were prepared in MBH II media along the X- and Y-axis, respectively, in 96-well plates. The inoculum was added to the plates, and subsequently these were incubated for 18–20 h. All steps for inoculum preparation and broth microdilution were in accordance with the CLSI guidelines (Clinical and Laboratory Standards Institute, [2013]). The fractional inhibitory concentration index (FICI) was calculated as [MICA(A+B)/MICA(alone)] + [MICB(A+B)/MICB(alone)], where MICA(A+B) represents the MIC of antibiotic (A) in combination with peptidomimetic (B), while MICB(A+B) represents the MIC of peptidomimetic (B) in combination with antibiotic (A). MICA(alone) and MICB(alone) represent the MIC of each compound individually. FICI values of ≤0.5 were interpreted as synergy."}, "[2]": {"tested_on": "P. aeruginosa ATCC 27853", "experimental": "as §1"}, "[3]": {"tested_on": "K. pneumoniae ST258", "experimental": "as §1"}, "[4]": {"tested_on": "K. pneumoniae ST258", "assay": "MIC by broth microdilution", "format": "cell-based, Klebsiella pneumoniae", "experimental": "(§2) Minimal inhibitory concentrations (MICs) of peptidomimetics, antibiotics and their combinations were determined by broth microdilution according to the Clinical Laboratory Standards Institute performance standards (Clinical and Laboratory Standards Institute, [2013]). […] Since rifampicin and azithromycin mainly are used to treat infections with Gram-positive pathogens only CLSI clinical breakpoints were available for such bacteria. […] Potentiation of additional antibiotics by peptidomimetics was determined by using commercial 96-well plates containing varied concentrations of standard antibiotics (COMPAN1F; Trek Diagnostic Systems Inc.). The peptidomimetics were added immediately prior to inoculation with pathogen, and then MICs were determined as above. The MICs of peptidomimetic/antibiotic combinations were determined according to the method above, and the concentration ratios were selected based upon checkerboard results with 2:1 and 1:4 ratio of peptidomimetic with rifampicin or azithromycin, respectively. Minimal bactericidal concentrations (MBCs) were determined by using growth-curve assay plates. MIC plates were prepared as above, and then the plates were incubated at 37°C with continuous shaking. Growth was recorded at 10 min intervals as optical density (OD) at 600 nm during 24 h. At 24 h, for wells without growth, a sample was diluted 10-fold in sterile saline (0.9% sodium chloride) and plated onto MHA, following CLSI guidelines (Clinical and Laboratory Standards Institute, [1999])."}, "[5]": {"tested_on": "P. aeruginosa ATCC 27853", "assay": "MIC by broth microdilution", "format": "cell-based, Pseudomonas aeruginosa", "conditions": "peptidomimetic alone", "experimental": "as §2"}, "[6]": {"tested_on": "K. pneumoniae ST258", "assay": "Screening of peptidomimetic-antibiotic combinations (growth / growth inhibition)", "format": "cell-based, Klebsiella pneumoniae", "design": "key to Growth in combination with RIF / Growth in combination with AZM: Growth (+); growth inhibition (–)", "experimental": "as §2"}, "[7]": {"assay": "MTS/PMS cell viability assay", "format": "cell-based", "conditions": "human, HepG2 hepatocytes, 1 h exposure, read-out: Cytotoxicity HepG2 EC50 ± SD", "experimental": "(§3) NIH 3T3 and HepG2 cells (both from ATCC, Manassas, VA, USA) were cultured in flat-bottomed 96-well MicroWell™ plates (NUNC, Roskilde, Denmark) at seeding densities of ~23,000 and ~22,000 cells/well, respectively, and then cultured for 22–24 h under standard culturing conditions (37°C, 5% CO2, humidified air) to reach 80–90% confluence. NIH 3T3 were cultured in Dulbecco's modified Eagle's medium (DMEM) supplemented with 10% (v/v) newborn-calf serum (NCS) (Gibco, Paisly, UK), while HepG2 were cultured in Eagle's minimum essential medium (EMEM) supplemented with 10% (v/v) fetal bovine serum (FBS, Gibco, Paisly, UK), sodium pyruvate (1 mM), and non-essential amino acids (1%, v/v). Both culturing media were further supplemented with penicillin (100 U/mL), streptomycin (100 μg/mL), and L-glutamine (2 mM).\n(§4) Effect on cell viability was determined in NIH 3T3 fibroblasts and HepG2 hepatocytes by using the MTS/PMS assay measuring metabolic activity. Briefly, the adhered cells were washed with 37°C Hanks' balanced salt solution (HBSS from Sigma-Aldrich, St. Louis, MO, USA), containing 10 mM HEPES (AppliChem, Darmstadt, Germany), and adjusted to pH 7.4, and were then exposed for 1 h to 100 μL of test compound(s) dissolved in the appropriate culturing medium without serum for each cell line. After exposure the cells were washed with HBSS containing 10 mM HEPES (pH 7.4) and 100 μL of an MTS/PMS solution, consisting of 240 μg/mL MTS (Promega, Madison, WI, USA) and 2.4 μg/mL PMS (SigmaAldrich, Buchs, Switzerland) in HBSS, was added to the cells, which then were incubated for 1 h at 37°C with horizontal shaking under light protection. Absorbance was measured at 492 nm by using a POLARstar OPTIMA plate reader (BMG Labtech, Offenburg, Germany). The relative viability was calculated according to Equation (1) with absorbance values obtained after incubation of cells with test compound; incubation with SDS (0.2%, w/v in medium) defined 100% cell death (Abspos), while the absorbance of cells incubated with medium defined 0% cell death (Absneg).\n(§5) (1) Relative viability(%)=(Abssample-Abspos)/(Absneg-Abspos)×100%\n(§6) EC50 values were calculated by using GraphPad Prism 7 (GraphPad Software, La Jolla, CA, USA) via fitting of the relative cell viability to the concentration of the test compound by using Equation (2):\n(§7) (2) Relative viability(%)= Top-Bottom/1+10^(LogIC50-Log[peptidomimetic]) ×Hill slope\n(§8) With top and bottom representing the mean highest and lowest observed values, respectively. The Hill slope represents a factor for the steepness of the linear part of the curve. In order to prevent erroneous calculation, the top and bottom values were constrained to 100 and 0%, respectively. Data were collected from technical triplicates. The selectivity index was calculated as the average effect on cell viability (EC50 values for HepG2 and NIH 3T3 cells) divided by the MIC."}, "[8]": {"assay": "MTS/PMS cell viability assay", "format": "cell-based, mouse", "conditions": "mouse, NIH 3T3 fibroblasts, 1 h exposure, read-out: Cytotoxicity NIH 3T3 EC50 ± SD", "experimental": "as §3, §4, §5, §6, §7, §8"}, "[9]": {"tested_on": "E. coli ST131", "assay": "MIC by broth microdilution", "format": "cell-based, Escherichia coli", "conditions": "peptidomimetic alone", "experimental": "as §2"}, "[10]": {"tested_on": "NIH 3T3 and HepG2 cells", "assay": "Effect on viability of mammalian cells (both cell lines)", "format": "cell-based, mouse and human", "experimental": "as §3, §4, §5, §6, §7\nWith top and bottom representing the mean highest and lowest observed values, respectively. The Hill slope represents a factor for the steepness of the linear part of the curve. […] The selectivity index was calculated as the average effect on cell viability (EC50 values for HepG2 and NIH 3T3 cells) divided by the MIC."}, "[11]": {"tested_on": "MDR E. coli ST131", "assay": "Screening of peptidomimetic-antibiotic combinations (growth / growth inhibition)", "format": "cell-based, Escherichia coli", "design": "key to Growth in combination with RIF / Growth in combination with AZM: Growth (+); growth inhibition (–)", "experimental": "as §2"}, "[12]": {"tested_on": "E. coli ST131", "assay": "Potentiation of additional antibiotics (COMPAN1F plates), MIC", "format": "cell-based, Escherichia coli", "experimental": "as §2"}, "[13]": {"tested_on": "K. pneumoniae ST258", "assay": "Potentiation of additional antibiotics (COMPAN1F plates), MIC", "format": "cell-based, Klebsiella pneumoniae", "experimental": "as §2"}, "[14]": {"conditions": "MIC of azithromycin combined with the labelled peptidomimetic"}, "[15]": {"conditions": "MIC of rifampicin combined with the labelled peptidomimetic"}, "[16]": {"conditions": "peptidomimetic 0.5 μM + azithromycin 1 μg/mL"}, "[17]": {"conditions": "peptidomimetic 0.5 μM + rifampicin 0.5 μg/mL"}},
  "note": "Read-outs that look alike come from different tables or passages of the source.",
  "data": [
    {"compound": "C[C@@H](c1ccccc1)N(CCC(N)=O)C(=O)[C@H](CCCCNC(=N)N)NC(=O)CCN(C(=O)[C@H](CCCCN)NC(=O)CCN(C(=O)[C@H](CCCCNC(=N)N)NC(=O)CCN(C(=O)[C@H](CCCCN)NC(=O)CCN(C(=O)[C@H](CCCCNC(=N)N)NC(=O)CCN(C(=O)[C@H](CCCCN)NC(=O)CNCCN)[C@@H](C)c1ccccc1)[C@@H](C)c1ccccc1)[C@@H](C)c1ccccc1)[C@@H](C)c1ccccc1)[C@@H](C)c1ccccc1", "note": "[Peptidomimetic 25, NDab-Lys-βNspe-hArg-βNspe)3-NH2]", "values": [
      {"measurement": "Antibiotic MIC in combination (AZM)", "setting": "[1]; [14]", "value": 0.5, "unit": "µg/mL"},
      {"measurement": "Antibiotic MIC in combination (RIF)", "setting": "[1]; [15]", "value": 0.5, "unit": "µg/mL"},
      {"measurement": "Peptidomimetic MIC alone", "setting": "[1]; checkerboard", "value": 2, "unit": "µM"},
      {"measurement": "Peptidomimetic MIC in combination", "setting": "[1]; combined with AZM", "value": 0.25, "unit": "µM"},
      {"measurement": "Peptidomimetic MIC in combination", "setting": "[1]; combined with RIF", "value": 0.25, "unit": "µM"},
      {"measurement": "Antibiotic MIC in combination (RIF)", "setting": "[2]; P. aeruginosa ATCC 27853, MIC of rifampicin combined with the labelled peptidomimetic", "value": 0.06, "unit": "µg/mL"},
      {"measurement": "Peptidomimetic MIC alone", "setting": "[2]; P. aeruginosa ATCC 27853, checkerboard", "value": 8, "unit": "µM"},
      {"measurement": "Peptidomimetic MIC in combination", "setting": "[2]; P. aeruginosa ATCC 27853, combined with AZM", "value": 1, "unit": "µM"},
      {"measurement": "Peptidomimetic MIC in combination", "setting": "[2]; P. aeruginosa ATCC 27853, combined with RIF", "value": 1, "unit": "µM"},
      {"measurement": "Reduction of the MIC of azithromycin", "setting": "[2]; P. aeruginosa, sub-MIC concentrations of peptidomimetic", "value": "32- to 512 fold"},
      {"measurement": "Antibiotic MIC in combination (AZM)", "setting": "[3]; [14]", "value": 8, "unit": "µg/mL"},
      {"measurement": "Antibiotic MIC in combination (RIF)", "setting": "[3]; [15]", "value": 0.06, "unit": "µg/mL"},
      {"measurement": "Peptidomimetic MIC alone", "setting": "[3]; checkerboard", "value": 8, "unit": "µM"},
      {"measurement": "Peptidomimetic MIC in combination", "setting": "[3]; combined with AZM", "value": 0.5, "unit": "µM"},
      {"measurement": "Peptidomimetic MIC in combination", "setting": "[3]; combined with RIF", "value": 1, "unit": "µM"},
      {"measurement": "Selectivity Index (SI) K. pneumoniae ST258", "setting": "[4]; average of EC50 (HepG2, NIH 3T3) divided by MIC", "value": "(16)"},
      {"measurement": "MIC K. pneumoniae ST258", "setting": "[4]; peptidomimetic alone", "value": 8, "unit": "µM"},
      {"measurement": "MIC P. aeruginosa ATCC 27853", "setting": "[5]", "value": 8, "unit": "µM"},
      {"measurement": "Growth in combination with AZM", "setting": "[6]; [16]", "value": "+"},
      {"measurement": "Growth in combination with RIF", "setting": "[6]; [17]", "value": "+"},
      {"measurement": "EC50 at 1 h", "setting": "[7]", "value": "85 ± 3.06", "unit": "µM"},
      {"measurement": "EC50 at 1 h", "setting": "[8]", "value": "167 ± 5.53", "unit": "µM"},
      {"measurement": "MIC E. coli ST131", "setting": "[9]", "value": 2, "unit": "µM"},
      {"measurement": "EC50", "setting": "[10]", "value": "80 to 170", "unit": "µM"},
      {"measurement": "Growth in combination with AZM", "setting": "[11]; [16]", "value": "–"},
      {"measurement": "Growth in combination with RIF", "setting": "[11]; [17]", "value": "–"}
    ]},
    {"compound": "Trimethoprim/sulfamethoxazole", "values": [
      {"measurement": "MIC of antibiotic in presence of peptidomimetic 26", "setting": "[12]; + 0.25 μM peptidomimetic 26", "value": ">38", "unit": "µg/mL"},
      {"measurement": "MIC of antibiotic in presence of peptidomimetic 1", "setting": "[12]; + 0.5 μM peptidomimetic 1", "value": ">38", "unit": "µg/mL"},
      {"measurement": "MIC of antibiotic in presence of peptidomimetic 15", "setting": "[12]; + 0.5 μM peptidomimetic 15", "value": ">38", "unit": "µg/mL"},
      {"measurement": "MIC of antibiotic alone", "setting": "[12]; no peptidomimetic", "value": ">38", "unit": "µg/mL"},
      {"measurement": "MIC of antibiotic in presence of peptidomimetic 1", "setting": "[13]; + 1 μM peptidomimetic 1", "value": ">38", "unit": "µg/mL"},
      {"measurement": "MIC of antibiotic in presence of peptidomimetic 15", "setting": "[13]; + 1 μM peptidomimetic 15", "value": ">38", "unit": "µg/mL"},
      {"measurement": "MIC of antibiotic in presence of peptidomimetic 26", "setting": "[13]; + 1 μM peptidomimetic 26", "value": ">38", "unit": "µg/mL"},
      {"measurement": "MIC of antibiotic alone", "setting": "[13]; no peptidomimetic", "value": ">38", "unit": "µg/mL"}
    ]}
  ]
}
